“Also recorded” adds a separate entry of the source.
How the values were obtained:
[1] = system: perineal branch of the sciatic nerve of rats made diabetic by streptozotocin; experiment: motor nerve conduction velocity in streptozotocin diabetic rats; format: in vivo, rat; details: STZ diabetic Sprague Dawley rats; GLA approx. 20 mg/kg/daily in food, TA 20 mg/kg/day intraperitoneal; 2 weeks treatment starting 6 weeks after STZ
Description: (§1) Initial experimental evidence was obtained by studying rats made diabetic by the administration of streptozotocin. In such animal, complications resembling human complications of diabetes develop, and are characterised by reduction in conduction velocity to of impulses along the sciatic nerve and reduction in blood flow to the sciatic nerve. The reduction in blood flow is particularly important and is likely to be relevant to many complications of diabetes including retinopathy, nephropathy macrovascular arterial disease of the heart and peripheral arteries, impotence and leg ulceration. It may also be relevant to many of the other conditions in which essential fatty acids are useful treatments, including the inflammatory disorders. Five groups of animals given streptozotocin (STZ) were tested. They were accepted into the study only if they developed unequivocal elevation of blood glucose after the STZ. Ten animals acted as normal controls. […] The animals were left for 6 weeks after the STZ to allow the nerve damage to develop and were then given treatment with nothing or with GLA or TA or both together for 2 weeks At the end of the two weeks, the animals were anaesthetised and the motor nerve conduction velocity measured in the perineal branch of the sciatic nerve. Sciatic nerve blood flow was also measured by microelectrode polarography hydrogen clearance

[2] = system: sciatic nerve of rats made diabetic by streptozotocin; experiment: sciatic nerve blood flow by microelectrode polarography hydrogen clearance in streptozotocin diabetic rats; format: in vivo, rat; details: STZ diabetic Sprague Dawley rats; GLA approx. 20 mg/kg/daily in food, TA 20 mg/kg/day intraperitoneal; 2 weeks treatment starting 6 weeks after STZ
Description: as §1

[3] = system: nerve conduction; details: TA alone; Packer et al, pages 570-572; cited from earlier work
[4] = system: plasma phospholipids; experiment: fatty acid levels in plasma phospholipids of rats fed GLA, EPA or DHA with or without anti-oxidant; format: in vivo, rat; details: fatty acid (GLA, EPA or DHA) 0.1% by weight in food plus 0.1% by weight anti-oxidant, two weeks, preliminary experiments
Protocol: (§2) In an effort to explore the effect further, we have performed preliminary experiments on rats on the effects of the administration of either GLA, EPA or DHA with or without the so anti-oxidants vitamin E, vitamin C or TA. Each fatty acid was added to the food at 0.1% by weight for a period of two weeks. The diet also contained either no other added material (control) or 0.1% by weight of vitamin E, vitamin C or TA. After two weeks the animals were killed and the levels of the fatty acids or their immediate metabolites determined in plasma phospholipids and in red cell membrane phospholipids. […] We can therefore conclude that there is no effect of anti-oxidants per se on the metabolism of the GLA, EPA or DHA in this situation. Equally, there were no effects of TA on the plasma phospholipid fatty acid composition. In contrast, in each of the groups the concentrations of the relevant fatty acids in red cell phospholipids were increased by 10-20%.

[5] = system: red cell membrane phospholipids; experiment: fatty acid levels in red cell membrane phospholipids of rats fed GLA, EPA or DHA with or without anti-oxidant; format: in vivo, rat; details: two weeks; for effect on levels of the fatty acids or their immediate metabolites in red cell membrane phospholipids: fatty acid (GLA, EPA or DHA) 0.1% by weight in food plus 0.1% by weight anti-oxidant, preliminary experiments
Protocol: as §2

[6] = system: animals with diabetes; experiment: vitamin E administered together with GLA in animals with diabetes; format: in vivo
Description: (§3) The results with EFA's and their synergistic effects with TA were completely unexpected and we decided to investigate them further. Vitamin E, like TA, is a lipophilic antioxidant and is one which is generally regarded as being physiologically more important than TA.

[7] = system: atopic eczema, breast pain, rheumatoid arthritis and cardiovascular disease; experiment: clinical studies of GLA with co-administration of vitamin E; format: in vivo, human
Description: as §3

Row | Compound | motor nerve conduction velocity [1] | total nerve blood flow [2] | effect on nerve conduction [3] | effect on levels of the fatty acids or their immediate metabolites in plasma phospholipids [4] | increase of concentrations of the relevant fatty acids in red cell phospholipids ([5]; GLA, EPA or DHA 0.1% by weight in food plus 0.1% by weight TA, versus control without TA) | effect on levels of the fatty acids or their immediate metabolites in red cell membrane phospholipids [5] | enhancement of the effect of GLA [6] | enhancement of the effects of GLA in clinical studies [7]
1 | CCCCC/C=C\C/C=C\C/C=C\CCCCC(=O)O [GLA, Gamma-linolenic acid] | little effect alone; also recorded: small improvements | little effect alone; also recorded: small improvements | – | – | – | – | – | –
2 | O=C(O)CCCCC1CCSS1 (stereo not drawn) [TA, α-lipoic acid] | little effect alone; also recorded: small improvements | little effect alone; also recorded: small improvements | absence of effect | no effects | 10-20% | – | – | –
3 | O=C1O[C@H]([C@@H](O)CO)C(O)=C1O [vitamin C] | – | – | – | Neither vitamin E nor vitamin C had any effects | – | Neither vitamin E nor vitamin C had any effects | – | –
4 | vitamin E | – | – | – | Neither vitamin E nor vitamin C had any effects | – | Neither vitamin E nor vitamin C had any effects | no enhancement at all | not enhanced
